Measurements reported in the NIST ThermoML archive (doi:10.1016/j.fluid.2019.06.022).
Several values for one entry are separate records, joined by “and”; a condition that tells them apart may be missing. Identical values can stand only once.

Assay: xn = mol fraction of the nth substance listed
Details: Liquid; for mass density: Bellows volumetry; for viscosity: Falling or rolling sphere viscometry

C=CC [propene] + Cc1ccccc1
Details | mass density, x1 = 0.0787 | mass density, x1 = 0.3073 | viscosity, x1 = 0.0787 | viscosity, x1 = 0.3073
376.9 K, 3100 kPa | 760.8 kg/m3 | – | 0.253 mPa·s | –
376.9 K, 3200 kPa | 760.8 kg/m3 | – | 0.252 mPa·s | –
376.9 K, 3900 kPa | 762.5 kg/m3 | – | 0.26 mPa·s | –
376.9 K, 8400 kPa | 767 kg/m3 | – | 0.264 mPa·s | –
376.9 K, 8500 kPa | 767 kg/m3 | – | 0.267 mPa·s | –
376.9 K, 8600 kPa | 767 kg/m3 | – | 0.267 mPa·s | –
376.9 K, 8700 kPa | 767.3 kg/m3 | – | 0.269 mPa·s | –
376.9 K, 14300 kPa | 774.1 kg/m3 | – | 0.282 mPa·s | –
376.9 K, 14600 kPa | 774.1 kg/m3 | – | 0.283 mPa·s | –
376.9 K, 26800 kPa | 786.3 kg/m3 | – | 0.314 mPa·s | –
376.9 K, 27000 kPa | 786.3 kg/m3 | – | 0.312 mPa·s | –
376.9 K, 27200 kPa | 786.6 kg/m3 | – | 0.312 mPa·s | –
376.9 K, 27400 kPa | 786.6 kg/m3 | – | 0.317 mPa·s and 0.312 mPa·s | –
376.9 K, 27600 kPa | 786.6 kg/m3 | – | 0.317 mPa·s | –
376.9 K, 41000 kPa | 799.3 kg/m3 and 798.4 kg/m3 | – | 0.352 mPa·s and 0.349 mPa·s | –
376.9 K, 41200 kPa | 798.4 kg/m3 and 799.3 kg/m3 | – | 0.345 mPa·s and 0.353 mPa·s | –
376.9 K, 55500 kPa | 810.5 kg/m3 | – | 0.376 mPa·s | –
376.9 K, 55800 kPa | 810.5 kg/m3 | – | 0.386 mPa·s | –
376.9 K, 68600 kPa | 819.9 kg/m3 | – | 0.419 mPa·s | –
376.9 K, 68900 kPa | 819.9 kg/m3 | – | 0.418 mPa·s | –
440.5 K, 3600 kPa | – | 599.7 kg/m3 | – | 0.12 mPa·s and 0.121 mPa·s
440.5 K, 7500 kPa | – | 612.2 kg/m3 | – | 0.129 mPa·s
440.5 K, 7600 kPa | – | 612.2 kg/m3 | – | 0.129 mPa·s
440.5 K, 20300 kPa | – | 642.2 kg/m3 | – | 0.15 mPa·s
440.5 K, 37200 kPa | – | 669.5 kg/m3 | – | 0.176 mPa·s and 0.177 mPa·s
440.5 K, 37400 kPa | – | 669.5 kg/m3 | – | 0.174 mPa·s
440.5 K, 37500 kPa | – | 669.5 kg/m3 | – | 0.178 mPa·s
440.5 K, 50100 kPa | – | 683.9 kg/m3 | – | 0.195 mPa·s
440.5 K, 50200 kPa | – | 683.8 kg/m3 | – | 0.193 mPa·s
440.5 K, 68600 kPa | – | 703.5 kg/m3 | – | 0.221 mPa·s
440.5 K, 68700 kPa | – | 703.5 kg/m3 | – | 0.222 mPa·s
443 K, 3200 kPa | 691.9 kg/m3 | – | 0.152 mPa·s | –
443 K, 3300 kPa | 691.6 kg/m3 | – | 0.151 mPa·s | –
443 K, 10500 kPa | 706.3 kg/m3 | – | 0.17 mPa·s and 0.166 mPa·s | –
443 K, 15100 kPa | 714.5 kg/m3 | – | 0.178 mPa·s | –
443 K, 15300 kPa | 714.5 kg/m3 | – | 0.178 mPa·s | –
443 K, 27100 kPa | 732.1 kg/m3 | – | 0.201 mPa·s | –
443 K, 27200 kPa | 732.1 kg/m3 | – | 0.2 mPa·s and 0.201 mPa·s | –
443 K, 27300 kPa | 731.8 kg/m3 | – | 0.201 mPa·s | –
443 K, 37600 kPa | 745.3 kg/m3 | – | 0.221 mPa·s | –
443 K, 37800 kPa | 745.3 kg/m3 | – | 0.218 mPa·s | –
443 K, 47900 kPa | 756.2 kg/m3 | – | 0.243 mPa·s and 0.244 mPa·s | –
443 K, 64800 kPa | 772.1 kg/m3 | – | 0.271 mPa·s | –
443 K, 65000 kPa | 772.4 kg/m3 | – | 0.271 mPa·s | –
529.2 K, 35300 kPa | – | 593.8 kg/m3 | – | 0.119 mPa·s and 0.12 mPa·s
529.2 K, 49000 kPa | – | 619 kg/m3 and 619.1 kg/m3 | – | 0.132 mPa·s and 0.135 mPa·s
529.2 K, 68500 kPa | – | 647.6 kg/m3 | – | 0.156 mPa·s
529.2 K, 68600 kPa | – | 647.5 kg/m3 | – | 0.153 mPa·s
531.1 K, 7200 kPa | 599.1 kg/m3 | – | 0.091 mPa·s | –
531.1 K, 19200 kPa | 641.3 kg/m3 | – | 0.114 mPa·s | –
531.1 K, 19400 kPa | 641.1 kg/m3 | – | 0.113 mPa·s | –
531.1 K, 31900 kPa | 669.1 kg/m3 and 669.7 kg/m3 and 669.3 kg/m3 | – | 0.133 mPa·s and 0.134 mPa·s | –
531.1 K, 32000 kPa | 670.2 kg/m3 | – | 0.133 mPa·s | –
531.1 K, 32100 kPa | 670 kg/m3 | – | 0.131 mPa·s | –
531.1 K, 32200 kPa | 670.2 kg/m3 | – | 0.136 mPa·s | –
531.1 K, 41400 kPa | 685 kg/m3 | – | 0.148 mPa·s | –
531.1 K, 41500 kPa | 685 kg/m3 and 685.2 kg/m3 | – | 0.145 mPa·s and 0.148 mPa·s | –
531.1 K, 41600 kPa | 685.2 kg/m3 | – | 0.146 mPa·s | –
531.1 K, 53300 kPa | 702.3 kg/m3 and 701.5 kg/m3 | – | 0.165 mPa·s | –
531.1 K, 53400 kPa | 701.7 kg/m3 and 702.5 kg/m3 | – | 0.164 mPa·s and 0.165 mPa·s | –
531.1 K, 67100 kPa | 718.1 kg/m3 | – | 0.18 mPa·s | –
531.1 K, 67200 kPa | 718.6 kg/m3 | – | 0.179 mPa·s | –
